In patent US10392391B2 (Vertex Pharmaceuticals Incorporated, priority 2012, dated 2019):
Where two headings read alike, the source gives them in different places.

Biological target: ATR kinase (full-length ATR) (Homo sapiens (Human), UniProt Q13535)
Test: ATR inhibition assay (radioactive-phosphate incorporation)
Assay type: biochemical
Procedure, shortened: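 Radiometric 33P incorporation by 5 nM full-length ATR into 800 μM target peptide with 10 μM [γ-33P]ATP, in 50 mM Tris/HCl pH 7.5, 10 mM MgCl2, 1 mM DTT, 7% DMSO, 25° C. Compound pre-incubated 10 minutes; reaction stopped after 24 hours, captured on phosphocellulose. Ki(app) from non-linear regression of initial rates.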

[1] = Ki(app), 5 nM full-length ATR, 10 μM ATP, 25° C.

Chain of ATR kinase (full-length ATR) (Q13535 whole entry): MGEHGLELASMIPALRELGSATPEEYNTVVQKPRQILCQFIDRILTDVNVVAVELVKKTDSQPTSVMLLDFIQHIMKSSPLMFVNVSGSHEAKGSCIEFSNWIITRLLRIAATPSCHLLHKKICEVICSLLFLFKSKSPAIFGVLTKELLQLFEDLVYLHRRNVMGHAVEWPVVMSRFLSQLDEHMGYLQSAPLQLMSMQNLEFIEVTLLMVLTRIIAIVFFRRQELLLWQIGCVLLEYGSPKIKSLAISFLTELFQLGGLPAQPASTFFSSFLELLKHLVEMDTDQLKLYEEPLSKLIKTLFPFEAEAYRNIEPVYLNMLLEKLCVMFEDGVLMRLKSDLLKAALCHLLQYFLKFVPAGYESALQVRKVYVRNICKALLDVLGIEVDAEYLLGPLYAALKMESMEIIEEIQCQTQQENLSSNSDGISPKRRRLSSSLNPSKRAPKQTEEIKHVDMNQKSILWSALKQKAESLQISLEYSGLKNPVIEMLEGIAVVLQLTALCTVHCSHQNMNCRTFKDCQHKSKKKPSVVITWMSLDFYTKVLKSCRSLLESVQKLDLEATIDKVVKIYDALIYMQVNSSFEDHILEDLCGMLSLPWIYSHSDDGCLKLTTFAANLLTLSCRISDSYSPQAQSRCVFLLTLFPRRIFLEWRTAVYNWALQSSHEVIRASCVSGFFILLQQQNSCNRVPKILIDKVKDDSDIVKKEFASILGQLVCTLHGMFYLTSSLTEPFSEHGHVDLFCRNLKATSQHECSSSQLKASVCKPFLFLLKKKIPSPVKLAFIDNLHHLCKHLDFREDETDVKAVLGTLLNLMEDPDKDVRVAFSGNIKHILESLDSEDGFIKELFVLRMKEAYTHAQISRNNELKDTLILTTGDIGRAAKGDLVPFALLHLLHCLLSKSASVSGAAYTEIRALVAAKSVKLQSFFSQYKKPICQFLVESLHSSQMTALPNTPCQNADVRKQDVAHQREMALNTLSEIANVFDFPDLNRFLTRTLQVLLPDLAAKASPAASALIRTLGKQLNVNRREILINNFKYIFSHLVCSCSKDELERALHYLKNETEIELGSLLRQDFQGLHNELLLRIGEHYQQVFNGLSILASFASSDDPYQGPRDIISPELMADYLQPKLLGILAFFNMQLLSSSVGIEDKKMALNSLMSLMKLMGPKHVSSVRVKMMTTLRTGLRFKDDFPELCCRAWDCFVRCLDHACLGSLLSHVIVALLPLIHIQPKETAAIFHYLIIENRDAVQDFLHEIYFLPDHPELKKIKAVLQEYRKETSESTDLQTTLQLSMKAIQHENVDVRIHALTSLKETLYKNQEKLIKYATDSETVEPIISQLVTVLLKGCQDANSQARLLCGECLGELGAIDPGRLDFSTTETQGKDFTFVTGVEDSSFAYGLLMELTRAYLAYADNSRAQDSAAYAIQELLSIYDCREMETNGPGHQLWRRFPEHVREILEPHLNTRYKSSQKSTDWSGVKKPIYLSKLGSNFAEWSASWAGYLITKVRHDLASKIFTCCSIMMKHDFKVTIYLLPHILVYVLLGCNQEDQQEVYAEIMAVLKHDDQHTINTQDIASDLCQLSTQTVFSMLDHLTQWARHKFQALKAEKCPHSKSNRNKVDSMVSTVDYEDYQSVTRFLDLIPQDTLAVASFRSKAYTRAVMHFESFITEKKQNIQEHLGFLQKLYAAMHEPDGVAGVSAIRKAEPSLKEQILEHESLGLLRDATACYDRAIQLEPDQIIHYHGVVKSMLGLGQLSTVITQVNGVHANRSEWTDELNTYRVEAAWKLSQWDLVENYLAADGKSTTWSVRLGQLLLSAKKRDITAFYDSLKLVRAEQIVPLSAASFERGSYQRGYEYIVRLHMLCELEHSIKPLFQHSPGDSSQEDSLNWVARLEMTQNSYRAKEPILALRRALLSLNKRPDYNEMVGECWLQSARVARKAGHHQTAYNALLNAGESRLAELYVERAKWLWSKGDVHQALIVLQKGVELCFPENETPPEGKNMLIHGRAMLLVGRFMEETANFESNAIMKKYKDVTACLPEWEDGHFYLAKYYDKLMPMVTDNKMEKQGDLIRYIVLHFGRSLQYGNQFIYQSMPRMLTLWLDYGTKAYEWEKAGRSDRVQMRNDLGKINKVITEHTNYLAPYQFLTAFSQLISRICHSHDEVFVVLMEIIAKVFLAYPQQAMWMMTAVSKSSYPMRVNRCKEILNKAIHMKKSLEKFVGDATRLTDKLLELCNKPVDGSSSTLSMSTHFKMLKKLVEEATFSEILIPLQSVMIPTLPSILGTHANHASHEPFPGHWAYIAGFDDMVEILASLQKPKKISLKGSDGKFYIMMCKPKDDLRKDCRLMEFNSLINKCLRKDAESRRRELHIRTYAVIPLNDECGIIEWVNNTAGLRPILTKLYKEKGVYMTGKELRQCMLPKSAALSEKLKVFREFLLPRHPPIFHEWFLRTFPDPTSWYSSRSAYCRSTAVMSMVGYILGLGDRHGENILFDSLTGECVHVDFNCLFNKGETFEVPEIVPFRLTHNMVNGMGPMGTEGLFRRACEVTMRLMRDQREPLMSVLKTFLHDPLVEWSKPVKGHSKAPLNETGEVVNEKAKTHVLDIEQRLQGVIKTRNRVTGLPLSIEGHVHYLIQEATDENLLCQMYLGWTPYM

| SMILES | Ki [1] [nM] | Ki [nM] |
| --- | --- | --- |
| Nc1nn2cc(F)cnc2c1C(=O)Nc1cncc(Cl)c1N1CCC(O)C1 (centres unmarked) [I-N-284, 2-amino-N-(5-chloro-4-(3-hydroxypyrrolidin-1-yl)pyridin-3-yl)-6-fluoropyrazolo[1,5-a]pyrimidine-3-carboxamide] | 10 to 1000 | – |
| Nc1nn2cc(Cl)cnc2c1C(=O)Nc1cnccc1OC1CNC1 [I-O-73, 2-amino-N-(4-(azetidin-3-yloxy)pyridin-3-yl)-6-chloropyrazolo[1,5-a]pyrimidine-3-carboxamide] | 10 to 1000 | – |
| CN1CCC(c2ccncc2NC(=O)c2c(N)nn3cc(F)cnc23)CC1 [I-C-1, 2-amino-6-fluoro-N-(4-(1-methylpiperidin-4-yl)pyridin-3-yl)pyrazolo[1,5-a]pyrimidine-3-carboxamide] | – | 1000 to 5000 |
| N#CCc1cnc2c(C(=O)Nc3cnccc3O[C@@H]3CCNC3)c(N)nn2c1 [I-O-87, (R)-2-amino-6-(cyanomethyl)-N-(4-(pyrrolidin-3-yloxy)pyridin-3-yl)pyrazolo[1,5-a]pyrimidine-3-carboxamide] | 10 to 1000 | – |
| Nc1nn2cc(F)cnc2c1C(=O)Nc1cnccc1-c1cccnc1F [I-C-35, 2-amino-6-fluoro-N-(2-fluoro-[3,4′-bipyridin]-3′-yl)pyrazolo[1,5-a]pyrimidine-3-carboxamide] | 10 to 1000 | – |
| Cc1ccnnc1-c1ccncc1NC(=O)c1c(N)nn2cc(F)cnc12 [I-C-33, 2-amino-6-fluoro-N-(4-(4-methylpyridazin-3-yl)pyridin-3-yl)pyrazolo[1,5-a]pyrimidine-3-carboxamide] | 10 to 1000 | – |
| Nc1nn2cc(F)cnc2c1C(=O)Nc1cncc(F)c1N1CCC(C(=O)N2CCNC3CC32)CC1 (centres unmarked) [I-G-62, N-(4-(4-(2,5-diazabicyclo[4.1.0]heptane-2-carbonyl)piperidin-1-yl)-5-fluoropyridin-3-yl)-2-amino-6-fluoropyrazolo[1,5-a]pyrimidine-3-carboxamide] | 10 to 1000 | – |
| CC(C)N1CCN(c2ccncc2NC(=O)c2c(N)nn3cc(F)cnc23)CC1 [I-N-4, 2-amino-6-fluoro-N-(4-(4-isopropylpiperazin-1-yl)pyridin-3-yl)pyrazolo[1,5-a]pyrimidine-3-carboxamide] | 10 to 1000 | – |
| N#CCc1cnc2c(C(=O)Nc3cnccc3OCCCO)c(N)nn2c1 [I-O-40, 2-amino-6-(cyanomethyl)-N-(4-(3-hydroxypropoxy)pyridin-3-yl)pyrazolo[1,5-a]pyrimidine-3-carboxamide] | < 10 | – |
| Nc1nn2cc(F)cnc2c1C(=O)Nc1cncc(F)c1N1CCC(C(=O)N2CCN3CC[C@H]2C3)CC1 [I-G-70, N-(4-(4-((5S)-1,4-diazabicyclo[3.2.1]octane-4-carbonyl)piperidin-1-yl)-5-fluoropyridin-3-yl)-2-amino-6-fluoropyrazolo[1,5-a]pyrimidine-3-carboxamide] | 10 to 1000 | – |
| COc1cncc(NC(=O)c2c(N)nn3cc(F)cnc23)c1C1CC1 [I-C-84, 2-amino-N-(4-cyclopropyl-5-methoxypyridin-3-yl)-6-fluoropyrazolo[1,5-a]pyrimidine-3-carboxamide] | 10 to 1000 | – |
| CN1CCN(C(=O)C2CCCN(c3c(F)cncc3NC(=O)c3c(N)nn4cc(F)cnc34)C2)CC1 (centres unmarked) [I-N-289, 2-amino-6-fluoro-N-(5-fluoro-4-(3-(4-methylpiperazine-1-carbonyl)piperidin-1-yl)pyridin-3-yl)pyrazolo[1,5-a]pyrimidine-3-carboxamide] | – | 1000 to 5000 |
| Cn1ncnc1-c1ccncc1NC(=O)c1c(N)nn2cc(F)cnc12 [I-C-65, 2-amino-6-fluoro-N-(4-(1-methyl-1H-1,2,4-triazol-5-yl)pyridin-3-yl)pyrazolo[1,5-a]pyrimidine-3-carboxamide] | 10 to 1000 | – |
| Nc1nn2cc(F)cnc2c1C(=O)Nc1cnccc1N1CCN2C(=O)OCC2C1 (centres unmarked) [I-N-238, 2-amino-6-fluoro-N-(4-(3-oxotetrahydro-1H-oxazolo[3,4-a]pyrazin-7(3H)-yl)pyridin-3-yl)pyrazolo[1,5-a]pyrimidine-3-carboxamide] | 10 to 1000 | – |
| Cc1nnc(N2CCN(c3ccncc3NC(=O)c3c(N)nn4cc(F)cnc34)CC2)o1 [I-N-256, 2-amino-6-fluoro-N-(4-(4-(5-methyl-1,3,4-oxadiazol-2-yl)piperazin-1-yl)pyridin-3-yl)pyrazolo[1,5-a]pyrimidine-3-carboxamide] | 10 to 1000 | – |
| Nc1nn2cc(Cl)cnc2c1C(=O)Nc1cnccc1N1CCN(CC(F)(F)F)CC1 [I-N-67, 2-amino-6-chloro-N-(4-(4-(2,2,2-trifluoroethyl)piperazin-1-yl)pyridin-3-yl)pyrazolo[1,5-a]pyrimidine-3-carboxamide] | 10 to 1000 | – |
| Nc1nn2cc(F)cnc2c1C(=O)Nc1cnccc1N1CCN2CCOC[C@H]2C1 [I-N-116, (R)-2-amino-6-fluoro-N-(4-(hexahydropyrazino[2,1-c][1,4]oxazin-8(1H)-yl)pyridin-3-yl)pyrazolo[1,5-a]pyrimidine-3-carboxamide] | 10 to 1000 | – |
| N#CCc1cnc2c(C(=O)Nc3cnccc3Oc3ccccc3)c(N)nn2c1 [I-O-25, 2-amino-6-(cyanomethyl)-N-(4-phenoxypyridin-3-yl)pyrazolo[1,5-a]pyrimidine-3-carboxamide] | < 10 | – |

| SMILES | Ki [1] [nM] | Ki [nM] |
| --- | --- | --- |
| CCN1CCN(c2ccncc2NC(=O)c2c(N)nn3cc(F)cnc23)CC1 [I-N-17, 2-amino-N-(4-(4-ethylpiperazin-1-yl)pyridin-3-yl)-6-fluoropyrazolo[1,5-a]pyrimidine-3-carboxamide] | 10 to 1000 | – |
| Nc1nn2cc(Cl)cnc2c1C(=O)Nc1cnccc1O[C@H]1CCCNC1 [I-O-74, (S)-2-amino-6-chloro-N-(4-(piperidin-3-yloxy)pyridin-3-yl)pyrazolo[1,5-a]pyrimidine-3-carboxamide] | 10 to 1000 | – |
| N#CCc1cnc2c(C(=O)Nc3cnccc3N3CCCCCC3)c(N)nn2c1 [I-N-79, 2-amino-N-(4-(azepan-1-yl)pyridin-3-yl)-6-(cyanomethyl)pyrazolo[1,5-a]pyrimidine-3-carboxamide] | 10 to 1000 | – |
| CN(C)C1CCN(c2ccncc2NC(=O)c2c(N)nn3cc(Cl)cnc23)CC1 [I-N-37, 2-amino-6-chloro-N-(4-(4-(dimethylamino)piperidin-1-yl)pyridin-3-yl)pyrazolo[1,5-a]pyrimidine-3-carboxamide] | – | 1000 to 5000 |
| COCCN1CCN(c2ccncc2NC(=O)c2c(N)nn3cc(Cl)cnc23)CC1 [I-N-60, 2-amino-6-chloro-N-(4-(4-(2-methoxyethyl)piperazin-1-yl)pyridin-3-yl)pyrazolo[1,5-a]pyrimidine-3-carboxamide] | 10 to 1000 | – |
| Nc1nn2cc(F)cnc2c1C(=O)Nc1cncc(F)c1N1CCC(CN2CCOCC2)CC1 [I-N-149, 2-amino-6-fluoro-N-(5-fluoro-4-(4-(morpholinomethyl)piperidin-1-yl)pyridin-3-yl)pyrazolo[1,5-a]pyrimidine-3-carboxamide] | 10 to 1000 | – |
| Nc1nn2cc(F)cnc2c1C(=O)Nc1cncc(F)c1N1CC(=O)N2CCCC2C1 (centres unmarked) [I-N-232, 2-amino-6-fluoro-N-(5-fluoro-4-(4-oxohexahydropyrrolo[1,2-a]pyrazin-2(1H)-yl)pyridin-3-yl)pyrazolo[1,5-a]pyrimidine-3-carboxamide] | 10 to 1000 | – |
| Cn1cncc1-c1ccncc1NC(=O)c1c(N)nn2cc(F)cnc12 [I-C-56, 2-amino-6-fluoro-N-(4-(1-methyl-1H-imidazol-5-yl)pyridin-3-yl)pyrazolo[1,5-a]pyrimidine-3-carboxamide] | 10 to 1000 | – |
| CN1CCc2c(cncc2NC(=O)c2c(N)nn3cc(F)cnc23)C1 [I-C-8, 2-amino-6-fluoro-N-(7-methyl-5,6,7,8-tetrahydro-2,7-naphthyridin-4-yl)pyrazolo[1,5-a]pyrimidine-3-carboxamide] | 10 to 1000 | – |
| Nc1nn2cc(F)cnc2c1C(=O)Nc1cncc(Cl)c1N1CCN2CCN(C3COC3)CC2C1 (centres unmarked) [I-N-38, 2-amino-N-(5-chloro-4-(8-(oxetan-3-yl)hexahydro-1H-pyrazino[1,2-a]pyrazin-2(6H)-yl)pyridin-3-yl)-6-fluoropyrazolo[1,5-a]pyrimidine-3-carboxamide] | 10 to 1000 | – |
| CC1(C)CCCN1c1ccncc1NC(=O)c1c(N)nn2cc(F)cnc12 [I-N-220, 2-amino-N-(4-(2,2-dimethylpyrrolidin-1-yl)pyridin-3-yl)-6-fluoropyrazolo[1,5-a]pyrimidine-3-carboxamide] | 10 to 1000 | – |
| Nc1nn2cc(F)cnc2c1C(=O)Nc1cncc(F)c1N1CCC(N2CCCC2=O)CC1 [I-N-147, 2-amino-6-fluoro-N-(5-fluoro-4-(4-(2-oxopyrrolidin-1-yl)piperidin-1-yl)pyridin-3-yl)pyrazolo[1,5-a]pyrimidine-3-carboxamide] | 10 to 1000 | – |
| Nc1nn2cc(F)cnc2c1C(=O)Nc1cncc(F)c1N1CCC(C(=O)N2CC3CNCC3C2)CC1 (centres unmarked) [I-G-51, 2-amino-6-fluoro-N-(5-fluoro-4-(4-(octahydropyrrolo[3,4-c]pyrrole-2-carbonyl)piperidin-1-yl)pyridin-3-yl)pyrazolo[1,5-a]pyrimidine-3-carboxamide] | 10 to 1000 | – |
| CO[C@H]1CCN(C(=O)C2CCN(c3c(F)cncc3NC(=O)c3c(N)nn4cc(F)cnc34)CC2)C1 [I-G-99, (S)-2-amino-6-fluoro-N-(5-fluoro-4-(4-(3-methoxypyrrolidine-1-carbonyl)piperidin-1-yl)pyridin-3-yl)pyrazolo[1,5-a]pyrimidine-3-carboxamide] | 10 to 1000 | – |
| Nc1nn2cc(F)cnc2c1C(=O)Nc1cncc(F)c1N1CCC(C(=O)NC2COC2)CC1 [I-G-37, 2-amino-6-fluoro-N-(5-fluoro-4-(4-(oxetan-3-ylcarbamoyl)piperidin-1-yl)pyridin-3-yl)pyrazolo[1,5-a]pyrimidine-3-carboxamide] | 10 to 1000 | – |
| Nc1nn2cc(Cl)cnc2c1C(=O)Nc1cnccc1OC1CC2(CNC2)C1 [I-O-72, N-(4-(2-azaspiro[3.3]heptan-6-yloxy)pyridin-3-yl)-2-amino-6-chloropyrazolo[1,5-a]pyrimidine-3-carboxamide] | 10 to 1000 | – |
| CN(C)C1CCN(C2CCN(c3ccncc3NC(=O)c3c(N)nn4cc(Cl)cnc34)CC2)C1 (centres unmarked) [I-N-106, 2-amino-6-chloro-N-(4-(4-(3-(dimethylamino)pyrrolidin-1-yl)piperidin-1-yl)pyridin-3-yl)pyrazolo[1,5-a]pyrimidine-3-carboxamide] | 10 to 1000 | – |
